Patent US20140249135A1, “PIM KINASE INHIBITORS AND METHODS OF THEIR USE” (NOVARTIS AG, priority 2007, published 2014)
Like-named read-outs stand apart in the source and are kept apart here.

Legend:
Assay type in all cases: biochemical
Pim1 kinase = Pim1 kinase (Homo sapiens, UniProt P11309); experiment: Pim1 ATP depletion assay; settings: Pim1 ATP depletion assay;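 also: Luciferase-luciferin luminescence readout of residual ATP after PIM1 transfers phosphate to a peptide substrate, 40 µM ATP added, reaction run to roughly half ATP consumption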
Sequence of Pim1 kinase (P11309 whole entry): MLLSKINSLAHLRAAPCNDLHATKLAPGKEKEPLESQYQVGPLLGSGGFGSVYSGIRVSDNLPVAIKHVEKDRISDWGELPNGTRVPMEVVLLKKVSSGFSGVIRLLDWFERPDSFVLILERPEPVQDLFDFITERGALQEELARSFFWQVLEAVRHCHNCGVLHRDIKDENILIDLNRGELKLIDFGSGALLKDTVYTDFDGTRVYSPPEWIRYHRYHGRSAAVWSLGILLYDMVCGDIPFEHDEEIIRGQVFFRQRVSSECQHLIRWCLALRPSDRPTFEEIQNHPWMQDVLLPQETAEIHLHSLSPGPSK

Pim2 kinase = Pim2 kinase (Homo sapiens, UniProt Q9P1W9); experiment: Pim2 ATP depletion assay;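 also: Luciferase-based luminescent readout of ATP remaining after PIM2 phosphorylates a BAD peptide, final 5 nM enzyme, 4 µM ATP, 10 µM peptide, 2.5% DMSO, run to roughly half ATP consumption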
Sequence of Pim2 kinase (Q9P1W9 whole entry): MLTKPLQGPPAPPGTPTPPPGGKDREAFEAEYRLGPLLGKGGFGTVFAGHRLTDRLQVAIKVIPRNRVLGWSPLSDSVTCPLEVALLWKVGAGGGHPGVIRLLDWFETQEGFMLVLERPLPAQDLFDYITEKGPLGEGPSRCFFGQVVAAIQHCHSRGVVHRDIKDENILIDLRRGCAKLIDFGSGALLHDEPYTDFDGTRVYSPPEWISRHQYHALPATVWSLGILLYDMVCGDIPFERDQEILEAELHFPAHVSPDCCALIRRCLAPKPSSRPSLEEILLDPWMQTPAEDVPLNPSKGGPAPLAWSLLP

Pim3 kinase = Pim3 kinase (Homo sapiens, UniProt Q86V86); experiment: Pim3 ATP depletion assay

Measured: IC50

Nc1ccc(-c2nccs2)nc1C(=O)Nc1cnccc1N1CCC[C@H](N)C1 [Example 632, 3-amino-N-{4-[(3S)-3-aminopiperidin-1-yl]pyridin-3-yl}-6-(1,3-thiazol-2-yl)-pyridine-2-carboxamide]
< 1 µM: Pim1 kinase; read-out: PIM1 IC50 | Pim2 kinase; read-out: PIM2 IC50 | Pim3 kinase; read-out: PIM3 IC50

CC(C)Oc1ccc(F)c(-c2ccc(N)c(C(=O)Nc3cnccc3N3CCC[C@H](N)C3)n2)c1F [Example 488, 3-Amino-6-(2,6-difIuoro-3-isopropoxy-phenyl)-pyridine-2-carboxylic acid (3-amino-3,4,5,6-tetrahydro-2H-[1,4′]bipyridinyl-3′-yl)-amide]
< 1 µM: Pim1 kinase; read-out: IC50 (μM) PIM1 | Pim2 kinase; read-out: IC50 (μM) PIM2 | Pim3 kinase; read-out: IC50 (μM) PIM3

CCc1ccc(N)c(C(=O)Nc2cnccc2N2CCC[C@H](N)C2)n1 [Example 639, 3-amino-N-{4-[(3S)-3-aminopiperidin-1-yl]pyridin-3-yl}-6-ethylpyridine-2-carboxamide]
< 1 µM: Pim1 kinase; read-out: PIM1 IC50 | Pim2 kinase; read-out: PIM2 IC50 | Pim3 kinase; read-out: PIM3 IC50

COc1nc(-c2ccc(N)c(C(=O)Nc3cnccc3N3CCC[C@H](N)C3)n2)ccc1N [Example 705, 5,5′-Diamino-6′-methoxy-[2,2′]bipyridinyl-6-carboxylic acid (3-amino-3,4,5,6-tetra-hydro-2H-[1,4′]bipyridinyl-3′-yl)-amide]
< 1 µM: Pim1 kinase; read-out: PIM1 IC50 | Pim2 kinase; read-out: PIM2 IC50 | Pim3 kinase; read-out: PIM3 IC50

Nc1ccc(-c2cccc(CN3CCOCC3)c2)nc1C(=O)Nc1cnccc1N1CCC[C@H](N)C1 [Example 566, 3-Amino-6-(3-morpholin-4-ylmethyl-phenyl)-pyridine-2-carboxylic acid (3-amino-3,4,5,6-tetrahydro-2H-[1,4′]bipyridinyl-3′-yl)-amide]
< 1 µM: Pim1 kinase; read-out: PIM1 IC50 | Pim2 kinase; read-out: PIM2 IC50 | Pim3 kinase; read-out: PIM3 IC50

Nc1ccc(C23CC4CC(CC(C4)C2)C3)nc1C(=O)Nc1cnccc1N1CCC[C@H](N)C1 [Example 645, 6-Adamantan-1-yl-3-amino-pyridine-2-carboxylic acid (3-amino-3,4,5,6-tetrahydro-2H-[1,4′]bipyridinyl-3′-yl)-amide]
< 1 µM: Pim1 kinase; read-out: PIM1 IC50 | Pim2 kinase; read-out: PIM2 IC50 | Pim3 kinase; read-out: PIM3 IC50

N#Cc1cc(-c2ccncc2NC(=O)c2nc(-c3c(F)cccc3F)ccc2N)ccn1 [Example 618, 3-amino-N-(2′-cyano-4,4′-bipyridin-3-yl)-6-(2,6-difluorophenyl)pyridine-2-carboxamide]
< 1 µM: Pim1 kinase; read-out: PIM1 IC50 | Pim2 kinase; read-out: PIM2 IC50 | Pim3 kinase; read-out: PIM3 IC50

N[C@@H]1CN(c2ccncc2NC(=O)c2ccc(F)c(-c3ccccc3)n2)CC[C@H]1O [Example 681, 5-Fluoro-6-phenyl-pyridine-2-carboxylic acid (3-amino-4-hydroxy-3,4,5,6-tetrahydro-2H-[1,4′]bipyridinyl-3′-yl)-amide]
< 1 µM: Pim1 kinase; read-out: PIM1 IC50 | Pim2 kinase; read-out: PIM2 IC50 | Pim3 kinase; read-out: PIM3 IC50

CCOc1ccc(F)c(-c2ccc(N)c(C(=O)Nc3cnccc3N3CCC[C@H](N)C3)n2)c1 [Example 469, 3-Amino-6-(5-ethoxy-2-fluoro-phenyl)-pyridine-2-carboxylic acid (3-amino-3,4,5,6-tetrahydro-2H-[1,4′]bipyridinyl-3′-yl)-amide]
< 1 µM: Pim1 kinase; read-out: IC50 (μM) PIM1 | Pim2 kinase; read-out: IC50 (μM) PIM2 | Pim3 kinase; read-out: IC50 (μM) PIM3

CC1CC(N)CN(c2ccncc2NC(=O)c2nc(-c3ccccc3F)ccc2F)C1 (stereo not drawn) [Example 286, 3-Fluoro-6-(2-fluoro-phenyl)-pyridine-2-carboxylic acid (5-amino-3-methyl-3,4,5,6-tetra-hydro-2H-[1,4′]bipyridinyl-3′-yl)-amide]
< 1 µM: Pim1 kinase; read-out: IC50 (μM) PIM1 | Pim2 kinase; read-out: IC50 (μM) PIM2 | Pim3 kinase; read-out: IC50 (μM) PIM3

Nc1ccc(-c2c(F)cccc2F)nc1C(=O)Nc1cnccc1N1CC(N)CC(C(F)(F)F)C1 (stereo not drawn) [Example 282, 3-Amino-6-(2,6-difluoro-phenyl)-pyridine-2-carboxylic acid (3-amino-5-trifluoromethyl-3,4,5,6-tetrahydro-2H-[1,4′]bi-pyridinyl-3′-yl)-amide]
< 1 µM: Pim1 kinase; read-out: IC50 (μM) PIM1 | Pim2 kinase; read-out: IC50 (μM) PIM2 | Pim3 kinase; read-out: IC50 (μM) PIM3
